Where two headings read alike, the source gives them in different places.
Tests used:
S1PR2 = target: T1, S1PR2 (Homo sapiens, UniProt O95136); assay: competitive [^32P]S1P binding assay on cell membranes, S1PR2
T1 construct: purchased
Experimental: The test compounds were dissolved in DMSO and diluted into test samples with increasing concentrations with assay buffer. Commercial cell membranes expressing recombinant human S1PR were diluted with assay buffer to make a 20-40 μg/mL of solution. […] The plate was incubated for 60 min at room temperature with shaking and terminated by collecting the membranes onto 96-well glass fiber (GF/B) filtration plates (Millipore, Billerica, Mass.). Each filter was washed with 200 μL of assay buffer for a total of five washes. […] The IC50 values were fitted from GraphPad Prism 6 using one site Nonlinear Regression.

S1PR5 = target: T2, S1PR5 (Homo sapiens, UniProt Q9H228); assay: competitive [^32P]S1P binding assay on cell membranes, S1PR5
T2 construct: purchased

S1PR3 = target: T3, S1PR3 (Homo sapiens, UniProt Q99500); assay: competitive [^32P]S1P binding assay on cell membranes, S1PR3
T3 construct: purchased
T3 sequence (Q99500 whole entry): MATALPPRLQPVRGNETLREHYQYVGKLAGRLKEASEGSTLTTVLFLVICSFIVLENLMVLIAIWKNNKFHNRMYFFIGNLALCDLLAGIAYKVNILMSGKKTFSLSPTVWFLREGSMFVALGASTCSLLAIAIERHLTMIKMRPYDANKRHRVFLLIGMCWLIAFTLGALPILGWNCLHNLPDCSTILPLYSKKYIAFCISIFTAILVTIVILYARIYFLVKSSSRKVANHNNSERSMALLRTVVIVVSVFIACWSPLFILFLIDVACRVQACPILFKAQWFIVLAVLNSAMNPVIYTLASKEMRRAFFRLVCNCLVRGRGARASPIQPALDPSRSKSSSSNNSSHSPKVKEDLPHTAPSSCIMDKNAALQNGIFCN
Experimental: (§1) The test compounds were dissolved in DMSO and diluted into test samples with increasing concentrations with assay buffer. Commercial cell membranes expressing recombinant human S1PR were diluted with assay buffer to make a 20-40 μg/mL of solution. […] The plate was incubated for 60 min at room temperature with shaking and terminated by collecting the membranes onto 96-well glass fiber (GF/B) filtration plates (Millipore, Billerica, Mass.). Each filter was washed with 200 μL of assay buffer for a total of five washes. The filter bound radionuclide was measured by a Beckman LS 3801 scintillation counter using Cherenkov counting. The IC50 values were fitted from GraphPad Prism 6 using one site Nonlinear Regression.

S1PR4 = target: T4, S1PR4 (Homo sapiens, UniProt O95977); assay: competitive [^32P]S1P binding assay on cell membranes, S1PR4
T4 construct: purchased
T4 sequence (O95977 1-384): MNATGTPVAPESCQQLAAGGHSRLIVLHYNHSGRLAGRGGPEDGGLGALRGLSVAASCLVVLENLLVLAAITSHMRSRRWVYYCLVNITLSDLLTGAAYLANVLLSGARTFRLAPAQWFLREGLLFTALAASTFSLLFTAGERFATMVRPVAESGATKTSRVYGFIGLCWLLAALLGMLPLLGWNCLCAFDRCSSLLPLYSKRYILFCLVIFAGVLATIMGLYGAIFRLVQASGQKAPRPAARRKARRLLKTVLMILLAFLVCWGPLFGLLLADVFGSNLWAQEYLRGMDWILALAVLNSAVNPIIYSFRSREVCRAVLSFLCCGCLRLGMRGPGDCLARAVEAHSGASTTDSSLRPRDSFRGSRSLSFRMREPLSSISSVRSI
Experimental: as §1

S1PR1 = target: T5, S1PR1 (Homo sapiens, UniProt P21453); assay: competitive [^32P]S1P binding assay on cell membranes, S1PR1
T5 construct: purchased
T5 sequence (P21453 whole entry): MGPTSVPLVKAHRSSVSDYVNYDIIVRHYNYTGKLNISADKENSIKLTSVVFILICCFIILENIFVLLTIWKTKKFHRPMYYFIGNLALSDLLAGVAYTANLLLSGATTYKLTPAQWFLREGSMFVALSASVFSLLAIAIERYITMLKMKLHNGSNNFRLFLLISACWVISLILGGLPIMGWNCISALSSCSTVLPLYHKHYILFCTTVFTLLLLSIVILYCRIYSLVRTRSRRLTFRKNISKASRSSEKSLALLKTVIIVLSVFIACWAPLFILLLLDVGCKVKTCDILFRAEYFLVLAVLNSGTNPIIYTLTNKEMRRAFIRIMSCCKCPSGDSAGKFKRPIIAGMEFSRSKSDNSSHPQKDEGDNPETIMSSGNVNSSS
Experimental: as §1

[1] = [^32P]S1P competition, read-out: IC50 value, S1PR2 binding

T1 sequence (O95136 whole entry): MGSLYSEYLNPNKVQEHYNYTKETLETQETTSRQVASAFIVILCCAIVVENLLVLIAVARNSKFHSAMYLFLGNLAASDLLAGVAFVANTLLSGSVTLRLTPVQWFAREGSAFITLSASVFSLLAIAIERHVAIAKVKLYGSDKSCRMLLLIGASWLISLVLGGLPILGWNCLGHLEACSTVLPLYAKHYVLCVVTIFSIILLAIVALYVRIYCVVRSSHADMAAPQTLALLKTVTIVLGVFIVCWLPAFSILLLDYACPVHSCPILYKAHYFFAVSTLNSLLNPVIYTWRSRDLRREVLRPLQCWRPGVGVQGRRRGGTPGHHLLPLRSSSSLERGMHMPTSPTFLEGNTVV
T2 sequence (Q9H228 whole entry): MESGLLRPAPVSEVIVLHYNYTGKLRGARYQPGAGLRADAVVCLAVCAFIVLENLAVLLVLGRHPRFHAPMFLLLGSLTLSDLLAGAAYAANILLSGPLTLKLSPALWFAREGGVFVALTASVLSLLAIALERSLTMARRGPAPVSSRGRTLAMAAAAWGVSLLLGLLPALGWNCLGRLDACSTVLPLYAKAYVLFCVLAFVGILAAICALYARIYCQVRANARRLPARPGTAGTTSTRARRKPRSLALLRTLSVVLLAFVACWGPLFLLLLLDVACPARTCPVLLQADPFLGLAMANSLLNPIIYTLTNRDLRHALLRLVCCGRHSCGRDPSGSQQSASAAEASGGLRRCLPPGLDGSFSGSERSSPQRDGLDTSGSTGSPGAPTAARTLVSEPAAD

IC50 (S1PR2; Table 5, read-out: IC50 S1PR2) [nM]	IC50 (S1PR3; Table 5) [nM]	IC50 (S1PR1; Table 5) [nM]	Compound	further results
			CCC(CC)CC1(O)CCN(C(=O)Nc2cc(Oc3ccc(F)cc3)cc(C(F)(F)F)c2)CC1 [Compound 17c, 4-(2-Ethylbutyl)-N-(3-(4-fluorophenoxy)-5-(trifluoromethyl)phenyl)-4-hydroxypiperidine-1-carboxamide]	IC50 (S1PR2; [^32P]S1P competition, IC50 ± SD, second Table 1, read-out: S2PR2 IC50): 362 nM; melting point: 108 to 111 °C
			CCC(CC)CC1(O)CCN(C(=O)Nc2cc(Oc3ccc(F)cc3)cc(Oc3ccc(OC)cc3)c2)CC1 [Compound 28a, 4-(2-Ethylbutyl)-N-(3-(4-fluorophenoxy)-5-(4-methoxyphenoxy)phenyl)-4-hydroxypiperidine-1-carboxamide]	IC50 (S1PR2; [1]): 188 nM; melting point: 79 to 80 °C
			CCC(CC)CC1(O)CCN(C(=O)Nc2cc(Oc3ccc(F)cc3)cc(Oc3ccc4c(c3)CCN(C)C4=O)c2)CC1 [Compound 28b, 4-(2-Ethylbutyl)-N-(3-(4-fluorophenoxy)-5-((2-methyl-1-oxo-1,2,3,4-tetrahydroisoquinolin-6-yl)oxy)phenyl)-4-hydroxypiperidine-1-carboxamide]	melting point: 80 to 82 °C; IC50 (S1PR5): > 1000 nM; IC50 (S1PR3): > 1000 nM; IC50 (S1PR4): > 1000 nM; IC50 (S1PR1): > 1000 nM
			CCC(CC)CC1(O)CCN(C(=O)Nc2cc(Oc3ccc(F)cc3)cc(Oc3ccc4c(c3)CCNC4=O)c2)CC1 [Compound 28c, 4-(2-Ethylbutyl)-N-(3-(4-fluorophenoxy)-5-((1-oxo-1,2,3,4-tetrahydroisoquinolin-6-yl)oxy)phenyl)-4-hydroxypiperidine-1-carboxamide]	melting point: 81 to 83 °C; IC50 (S1PR5): > 1000 nM; IC50 (S1PR3): > 1000 nM; IC50 (S1PR4): > 1000 nM; IC50 (S1PR1): > 1000 nM
			CCC(CC)CC1(O)CCN(C(=O)Nc2cc(Oc3ccc(F)cc3)cc(Oc3ccc(C(=O)NCCF)cc3)c2)CC1 [Compound 28d, 4-(2-Ethylbutyl)-N-(3-(4-((2-fluoroethyl)carbamoyl)phenoxy)-5-(4-fluorophenoxy)phenyl)-4-hydroxypiperidine-1-carboxamide]	IC50 (S1PR2; [^32P]S1P competition, Table 2, read-out: IC50 S1PR2): 66.7 ± 7.8 nM; melting point: 79 to 82 °C; IC50 (S1PR5): > 1000 nM; IC50 (S1PR3): > 1000 nM; IC50 (S1PR4): > 1000 nM; IC50 (S1PR1): > 1000 nM
			CCC(CC)CC1(O)CCN(C(=O)Nc2cc(Oc3ccc(F)cc3)cc(Sc3ccc(S(C)(=O)=O)cc3)c2)CC1 [Compound 28e, 4-(2-Ethylbutyl)-N-(3-(4-fluorophenoxy)-5-((4-(methylsulfonyl)phenyl)thio)phenyl)-4-hydroxypiperidine-1-carboxamide]	IC50 (S1PR2; [1]): 14.6 nM; melting point: 78 to 80 °C; IC50 (S1PR5): > 1000 nM; IC50 (S1PR3): > 1000 nM; IC50 (S1PR4): > 1000 nM; IC50 (S1PR1): > 1000 nM
			CC(C)CC1(O)CCN(C(=O)Nc2cc(Oc3ccc(F)cc3)cc(Oc3ccc(C(=O)NCCF)cc3)c2)CC1 [Compound 28f, N-(3-(4-((2-fluoroethyl)carbamoyl)phenoxy)-5-(4-fluorophenoxy)phenyl)-4-hydroxy-4-isobutylpiperidine-1-carboxamide]	melting point: 81 to 83 °C
			Cc1nn(C)c2nc(NNC(=O)Nc3cc(Cl)nc(Cl)c3)cc(C(C)C)c12 [JTE-013, reference compound]	IC50 (S1PR5; [^32P]S1P competition, Table 2): > 1000 nM; IC50 (S1PR3; [^32P]S1P competition, Table 2): > 1000 nM; IC50 (S1PR4; [^32P]S1P competition, Table 2): > 1000 nM; IC50 (S1PR1; [^32P]S1P competition, Table 2): > 1000 nM
284 ± 27	> 1000	> 1000	CNC(=O)c1ccc(Oc2cc(NC(=O)N3CCC(O)(CC(C)C)CC3)cc(C(F)(F)F)c2)cc1 [TZ51-024]	
165 ± 35	> 1000	> 1000	CC(C)CC1(O)CCN(C(=O)Nc2cc(Oc3ccc(F)cc3)cc(C(F)(F)F)c2)CC1 [TZ51-032]	
296 ± 32	> 1000	> 1000	CCC(CC)CC1(O)CCN(C(=O)Nc2cc(Oc3ccc(S(C)(=O)=O)cc3)cc(C(F)(F)F)c2)CC1 [TZ51-033]	
270 ± 72	> 1000	> 1000	CC(C)CC1(O)CCN(C(=O)Nc2cc(Oc3ccc(S(C)(=O)=O)cc3)cc(C(F)(F)F)c2)CC1 [TZ51-035]	
	> 1000	> 1000	CCC(CC)CC1(O)CCN(C(=O)Nc2cc(Oc3ccc(F)cc3)cc(Oc3ccc(C(=O)NCCF)cc3)c2)CC1 [TZ57-028]	
195 ± 36	> 1000	> 1000	CC(C)CC1(O)CCN(C(=O)Nc2cc(Oc3ccc(F)cc3)cc(Oc3ccc(C(=O)NCCF)cc3)c2)CC1 [TZ57-029]	
	> 1000	> 1000	CC(C)CC1(O)CCN(C(=O)Nc2cc(Oc3ccc(F)cc3)cc(Sc3ccc(S(C)(=O)=O)cc3)c2)CC1 [TZ57-031]	
	> 1000	> 1000	CCC(CC)CC1(O)CCN(C(=O)Nc2cc(Oc3ccc(F)cc3)cc(Sc3ccc(S(C)(=O)=O)cc3)c2)CC1 [TZ57-032]	
525 ± 119	> 1000	> 1000	CC(C)CC1(O)CCN(C(=O)Nc2cc(Oc3ccc(OCCF)cc3)cc(Oc3ccc(S(C)(=O)=O)cc3)c2)CC1 [TZ57-033]	
418 ± 118	> 1000	> 1000	CCC(CC)CC1(O)CCN(C(=O)Nc2cc(Oc3ccc(OCCF)cc3)cc(Oc3ccc(S(C)(=O)=O)cc3)c2)CC1 [TZ57-034]	
73 ± 11	> 1000	> 1000	CCC(CC)CC1(O)CCN(C(=O)Nc2cc(Oc3ccc(F)cc3)cc(Oc3ccc4c(c3)CCN(C)C4=O)c2)CC1 [TZ57-089]	
30 ± 4	> 1000	> 1000	CCC(CC)CC1(O)CCN(C(=O)Nc2cc(Oc3ccc(F)cc3)cc(Oc3ccc4c(c3)CCNC4=O)c2)CC1 [TZ57-090]	

IC50 (S1PR2; Table 5, read-out: IC50 S1PR2) [nM]	IC50 (S1PR3; Table 5) [nM]	IC50 (S1PR1; Table 5) [nM]	Compound	further results
5.7 ± 0.5	> 1000	> 1000	COc1ccc(NC(=O)Cn2c(=O)c3ccccc3n(CC(=O)Nc3cc(Cl)c(OC)cc3OC)c2=O)cc1 [TZ59-104, N-(5-Chloro-2,4-dimethoxyphenyl)-2-(3-(2-((4-methoxyphenyl)amino)-2-oxoethyl)-2,4-dioxo-3,4-dihydroquinazolin-1(2H)-yl)acetamide]	
6.3 ± 0.9	> 1000	> 1000	COc1cc(OC)c(NC(=O)Cn2c(=O)n(CC(=O)Nc3ccccc3OC)c(=O)c3ccccc32)cc1Cl [TZ59-134, N-(5-Chloro-2,4-dimethoxyphenyl)-2-(3-(2-((2-methoxyphenyl)amino)-2-oxoethyl)-2,4-dioxo-3,4-dihydroquinazolin-1(2H)-yl)acetamide]	IC50 (S1PR5; Table 5): > 1000 nM; IC50 (S1PR4; Table 5): > 1000 nM
> 1000			COc1cc(OC)c(NC(=O)Cn2c(=O)n(CCF)c(=O)c3ccccc32)cc1Cl [TZ62-083]	
> 1000			COc1cc(OC)c(NC(=O)Cn2c(=O)n(C)c(=O)c3ccccc32)cc1Cl [TZ62-084]	
> 1000			CCn1c(=O)c2ccccc2n(CC(=O)Nc2cc(Cl)c(OC)cc2OC)c1=O [TZ62-087]	
76 ± 19			COc1cc(OC)c(NC(=O)Cn2c(=O)n(CCCC(=O)NC3CCCC3)c(=O)c3ccccc32)cc1Cl [TZ62-090]	
> 1000			COc1cc(OC)c(NC(=O)Cn2c(=O)n(CCCC(=O)NC3CCCC3)c(=O)c3cc(Cl)ccc32)cc1Cl [TZ62-091]	
> 1000			O=C(O)Cn1c(=O)c2ccccc2n(CC(=O)Nc2cc(Cl)nc(Cl)c2)c1=O [TZ62-092]	
> 1000			COc1ccccc1NC(=O)Cn1c(=O)c2ccccc2n(CC(=O)Nc2cc(Cl)nc(Cl)c2)c1=O [TZ62-093]	
> 1000			CCOc1ccc(C(=O)Cn2c(=O)n(Cc3ccccc3)c(=O)c3ccccc32)cc1Cl [TZ62-097]	
> 1000			CCOc1ccc(C(=O)Cn2c(=O)n(C)c(=O)c3ccccc32)cc1Cl [TZ62-098]	
> 1000			CCOc1ccc(C(=O)Cn2c(=O)n(CC)c(=O)c3ccccc32)cc1Cl [TZ62-099]	
> 1000			CCOc1ccc(C(=O)Cn2c(=O)n(CCF)c(=O)c3ccccc32)cc1Cl [TZ62-100]	
> 1000			COc1cc(OC)c(NC(=O)Cn2c(=O)n(CCN3CCOCC3)c(=O)c3ccccc32)cc1Cl [TZ62-102]	
49.8 ± 4.9			CCOc1ccc(C(=O)Cn2c(=O)n(CC(=O)Nc3ccccc3OC)c(=O)c3ccccc32)cc1Cl [TZ62-114]	
270 ± 210			CCOc1ccc(C(=O)Cn2cc(C(=O)O)c(=O)c3ccccc32)cc1Cl [TZ62-120]	
> 1000			COc1ccc(NC(=O)c2cn(CC(=O)Nc3cc(Cl)c(OC)cc3OC)c3ccccc3c2=O)cc1 [TZ62-125]	
> 1000			COc1ccc2c(c1)c(=O)c1ccccc1n2CC(=O)Nc1cc(Cl)c(OC)cc1OC [TZ65-032]	
16.9 ± 5.6			COc1cc(OC)c(NC(=O)Cn2c(=O)n(CC(=O)Nc3ccc(I)cc3)c(=O)c3ccccc32)cc1Cl [TZ65-033]	
10 ± 2.4			COc1cc(OC)c(NC(=O)Cn2c(=O)n(CC(=O)Nc3ccc(OCCF)cc3)c(=O)c3ccccc32)cc1Cl [TZ65-049]	
